Data: the NIST ThermoML archive (doi:10.1016/j.tca.2009.05.014)
± gives the expanded uncertainty stated by the source.

Conditions: Crystal, Rate of evaporation

CC(C)(C)C(=O)/C=C(\[O-])C(C)(C)C.CC(C)(C)C(=O)/C=C(\[O-])C(C)(C)C.[Cu+2] [bis(2,2,6,6-tetramethyl-3,5-heptanedionato)copper(II)]
Conditions	vapor or sublimation pressure [kPa]
375 K	4e-05 ± 4e-06
385 K	7.2e-05 ± 7e-06
395 K	0.000151 ± 1.5e-05
404 K	0.000343 ± 3.4e-05
415 K	0.00072 ± 7.2e-05
425 K	0.001456 ± 0.00015
435 K	0.002373 ± 0.00024
